Data published in patent US20240400553A1, “AMINE BASED MATRIPTASE 2 INHIBITORS AND USES THEREOF” (Disc Medicine, Inc., priority 2023, published 2024).

Each molecule was assayed against T1, Human Recombinant Matriptase 2 (Homo sapiens, UniProt Q8IU80) (assay: Matriptase 2 inhibition, fluorescence based assay (Method I)). Conditions: Table A; Ki of Matriptase-2 given as class symbols; read-out: Mat-2 Ki.
T1 construct: made in house
T1 sequence (Q8IU80 1-811): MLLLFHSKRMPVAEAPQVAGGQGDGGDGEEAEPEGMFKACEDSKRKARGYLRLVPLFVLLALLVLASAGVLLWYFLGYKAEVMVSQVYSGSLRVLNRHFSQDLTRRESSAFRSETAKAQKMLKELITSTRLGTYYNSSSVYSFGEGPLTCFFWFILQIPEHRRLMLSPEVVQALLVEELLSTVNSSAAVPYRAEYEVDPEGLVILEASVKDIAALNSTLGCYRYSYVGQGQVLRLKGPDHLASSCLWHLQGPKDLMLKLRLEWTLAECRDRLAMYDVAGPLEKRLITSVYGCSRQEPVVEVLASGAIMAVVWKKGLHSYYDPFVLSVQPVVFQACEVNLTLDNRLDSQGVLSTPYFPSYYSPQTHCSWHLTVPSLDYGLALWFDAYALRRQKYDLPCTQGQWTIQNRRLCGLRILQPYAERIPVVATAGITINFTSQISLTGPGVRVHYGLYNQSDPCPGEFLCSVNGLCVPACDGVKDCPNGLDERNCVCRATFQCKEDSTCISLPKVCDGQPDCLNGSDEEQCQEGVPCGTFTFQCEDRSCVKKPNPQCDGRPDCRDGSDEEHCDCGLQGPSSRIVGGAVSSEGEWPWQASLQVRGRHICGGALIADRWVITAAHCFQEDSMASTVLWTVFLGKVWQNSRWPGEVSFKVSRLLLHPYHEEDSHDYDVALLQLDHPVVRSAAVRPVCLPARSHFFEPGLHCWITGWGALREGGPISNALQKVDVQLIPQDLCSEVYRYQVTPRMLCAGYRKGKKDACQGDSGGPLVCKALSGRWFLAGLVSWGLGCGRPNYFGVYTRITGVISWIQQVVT
Type: biochemical
How it was run: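 Fluorogenic readout (Ex 360/Em 480 nm) taken 60 min after adding 62 μM Boc-Gln-Ala-Arg-AMC, following 30-min enzyme–compound preincubation at 25 °C. Conditions: 3.5 nM in-house enzyme, pH 7.5 Tris/NaCl/gelatin buffer, 1% DMSO; percent inhibition versus concentration fitted by variable-slope sigmoidal regression.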
Molecule `COCCN1CCN(C(=O)Nc2cc(Cn3c(C(=O)O)cc4ccc(CN)nc43)c3ccccc3c2)CC1` [Compound 288, 6-(aminomethyl)-1-((3-(4-(2-methoxyethyl)piperazine-1-carboxamido)naphthalen-1-yl)methyl)-1H-pyrrolo[2,3-b]pyridine-2-carboxylic acid] has a Ki of 100 to 500 nM. In the case of `CN1CCC[C@H]1CCOC(=O)Nc1cc(Cn2c(C(=O)O)cc3ccc(CN)nc32)c2ccccc2c1` [Compound 289, (S)-6-(aminomethyl)-1-((3-(((2-(1-methylpyrrolidin-2-yl)ethoxy)carbonyl)amino)naphthalen-1-yl)methyl)-1H-pyrrolo[2,3-b]pyridine-2-carboxylic acid], the Ki is reported as 100 to 500 nM. `CCOC(=O)c1cc2ccc(CN)nc2n1Cc1cc(NS(=O)(=O)Cc2ccsc2)cc2ccccc12` [Compound 291] gave a Ki of 100 to 500 nM. Work on `NCc1ccc2cc(C(=O)O)n(Cc3cc(NC(=O)NCC4CCN(S(=O)(=O)C5CC5)CC4)cc4ccccc34)c2n1` [Compound 292, 6-(aminomethyl)-1-({3-[({[1-(cyclopropanesul-fonyl)piperidin-4-yl]-methyl}carbamoyl)-amino]naphthalen-1-yl}-methyl)-1H-pyrrolo[2,3-b]pyridine-2-carboxylic acid] yielded a Ki of 100 to 500 nM. Molecule `CS(=O)(=O)N1CCC(CNC(=O)Nc2cc(Cn3c(C(=O)O)cc4ccc(CN)nc43)c3ccccc3c2)CC1` [Compound 293, 6-(aminomethyl)-1-{[3-({[(1-methanesulfonyl-piperidin-4-yl)methyl]-carbamoyl}amino)naph-thalen-1-yl]methyl}-1H-pyrrolo[2,3-b]pyridine-2-carboxylic acid] has a Ki of 100 to 500 nM. For `CC(C)(C)S(=O)(=O)N1CCC(CNC(=O)Nc2cc(Cn3c(C(=O)O)cc4ccc(CN)nc43)c3ccccc3c2)CC1` [Compound 294, 6-(aminomethyl)-1-({3-[({[1-(2-methylpropane-2-sulfonyl)piperidin-4-yl]methyl}carbamoyl)-amino]naphthalen-1-yl}-methyl)-1H-pyrrolo[2,3-b]pyridine-2-carboxylic acid], the Ki was 100 to 500 nM. `C[C@@H]1CN(C(=O)Nc2cc(Cn3c(C(=O)O)cc4ccc(CN)nc43)c3ccccc3c2)CCN1` [Compound 295, 6-(aminomethyl)-1-[(3-{[(3R)-3-methylpipera-zine-1-carbonyl]amino}-naphthalen-1-yl)methyl]-1H-pyrrolo[2,3-b]pyr-idine-2-carboxylic acid] was tested, and the Ki was 500 to 3000 nM. Molecule `CC1(C)CCN(C(=O)Nc2cc(Cn3c(C(=O)O)cc4ccc(CN)nc43)c3ccccc3c2)CC1` [Compound 296, 6-(aminomethyl)-1-({3-[(4,4-dimethylpiperidine-1-carbonyl)amino]naph-thalen-1-yl}methyl)-1H-pyrrolo[2,3-b]pyridine-2-carboxylic acid] has a Ki of 500 to 3000 nM. `NCc1ccc2cc(C(=O)O)n(Cc3cc(NC(=O)N4CC5CCCC5C4)cc4ccccc34)c2n1` (stereo not drawn) [Compound 297, 6-(aminomethyl)-1-{[3-({octahydrocyclopenta-[c]pyrrole-2-carbonyl}-amino)naphthalen-1-yl]-methyl}-1H-pyrrolo[2,3-b]pyridine-2-carboxylic acid] was tested, and the Ki was 500 to 3000 nM. In the case of `NCc1ccc2cc(C(=O)O)n(Cc3cc(NC(=O)N4CCC(C(F)(F)F)CC4)cc4ccccc34)c2n1` [Compound 298, 6-(aminomethyl)-1-[(3-{[4-(trifluoromethyl)-piperidine-1-carbonyl]-amino}naphthalen-1-yl)-methyl]-1H-pyrrolo[2,3-b]pyridine-2-carboxylic acid], the Ki is reported as 500 to 3000 nM. `CC(C)[C@H]1CCCN1C(=O)Nc1cc(Cn2c(C(=O)O)cc3ccc(CN)nc32)c2ccccc2c1` [Compound 299, 6-(aminomethyl)-1-[(3-{[(2R)-2-(propan-2-yl)-pyrrolidine-1-carbonyl]-amino}naphthalen-1-yl)-methyl]-1H-pyrrolo[2,3-b]pyridine-2-carboxylic acid] gave a Ki of 500 to 3000 nM. `CC1(O)CCN(C(=O)Nc2cc(Cn3c(C(=O)O)cc4ccc(CN)nc43)c3ccccc3c2)CC1` [Compound 300] was tested, and the Ki was 500 to 3000 nM. In the case of `C[C@@H]1C[C@H](C)CN(C(=O)Nc2cc(Cn3c(C(=O)O)cc4ccc(CN)nc43)c3ccccc3c2)C1` [Compound 301, 6-(aminomethyl)-1-[(3-{[(3R,5S)-3,5-dimeth-ylpiperidine-1-carbonyl]-amino}naphthalen-1-yl)-methyl]-1H-pyrrolo[2,3-b]pyridine-2-carboxylic acid], the Ki is reported as 500 to 3000 nM. `C[C@@H]1CN(C(=O)Nc2cc(Cn3c(C(=O)O)cc4ccc(CN)nc43)c3ccccc3c2)C[C@H](C)N1` [Compound 304, 6-(aminomethyl)-1-[(3-{[(3R,5S)-3,5-dimeth-ylpiperazine-1-carbon-yl]amino}naphthalen-1-yl)methyl]-1H-pyrrolo-[2,3-b]pyridine-2-car-boxylic acid] was tested, and the Ki was 500 to 3000 nM. `C[C@H]1CN(C(=O)Nc2cc(Cn3c(C(=O)O)cc4ccc(CN)nc43)c3ccccc3c2)CCN1` [Compound 305] was tested, and the Ki was 500 to 3000 nM. Work on `COC[C@H]1CCCN1C(=O)Nc1cc(Cn2c(C(=O)O)cc3ccc(CN)nc32)c2ccccc2c1` [Compound 307] yielded a Ki of 500 to 3000 nM. `NCc1ccc2cc(C(=O)O)n(Cc3cc(NC(=O)N4CC5CC(C5)C4)cc4ccccc34)c2n1` [Compound 308, 6-(aminomethyl)-1-{[3-({3-azabicyclo[3.1.1]-heptane-3-carbonyl}-amino)naphthalen-1-yl]-methyl}-1H-pyrrolo[2,3-b]pyridine-2-carboxylic acid] was tested, and the Ki was 500 to 3000 nM. Work on `CN1CCC[C@H]1COC(=O)Nc1cc(Cn2c(C(=O)O)cc3ccc(CN)nc32)c2ccccc2c1` [Compound 334, 6-(aminomethyl)-1-({3-[({[(2S)-1-methylpyr-rolidin-2-yl]methoxy}-carbonyl)amino]naph-thalen-1-yl}methyl)-1H-pyrrolo[2,3-b]pyr-idine-2-carboxylic acid] yielded a Ki of 100 to 500 nM. `CN1CCC[C@@H]1COC(=O)Nc1cc(Cn2c(C(=O)O)cc3ccc(CN)nc32)c2ccccc2c1` [Compound 336, 6-(aminomethyl)-1-({3-[({[(2R)-1-methylpyr-rolidin-2-yl]methoxy}-carbonyl)amino]naph-thalen-1-yl}methyl)-1H-pyrrolo[2,3-b]pyr-idine-2-carboxylic acid] showed a Ki of 100 to 500 nM. `CC(C)N(CCOC(=O)Nc1cc(Cn2c(C(=O)O)cc3ccc(CN)nc32)c2ccccc2c1)C(C)C` [Compound 338, 6-(aminomethyl)-1-({3-[({2-[bis(propan-2-yl)-amino]ethoxy}carbonyl)-amino]naphthalen-1-yl}-methyl)-1H-pyrrolo[2,3-b]pyridine-2-carboxylic acid] gave a Ki of 500 to 3000 nM. Work on `CN(C)C(=O)N1CC[C@H](OC(=O)Nc2cc(Cn3c(C(=O)O)cc4ccc(CN)nc43)c3ccccc3c2)C1` [Compound 341] yielded a Ki of 500 to 3000 nM. With `COCCN1CCN(C(=O)Nc2cc(Cn3c(C(N)=O)cc4ccc(CN)nc43)c3ccccc3c2)CC1` [Compound 344, 6-(aminomethyl)-1-((3-(4-(2-methoxyethyl)piperazine-1-carboxamido)naphthalen-1-yl)methyl)-1H-pyrrolo[2,3-b]pyridine-2-carboxamide] the Ki was 100 to 500 nM. `CN1CCC(c2nnc(-c3cc4ccc(CN)nc4n3Cc3cc(NS(=O)(=O)Cc4ccccc4)cc4ccccc34)o2)CC1` [Compound 345, N-(4-((6-(aminomethyl)-2-(5-(1-methylpiperidin-4-yl)-1,3,4-oxadiazol-2-yl)-1H-pyrrolo[2,3-b]pyridin-1-yl)methyl)naphthalen-2-yl)-1-phenylmethanesulfonamide] gave a Ki of at most 100 nM. For `CN1CCC(Cc2nnc(-c3cc4ccc(CN)nc4n3Cc3cc(NS(=O)(=O)Cc4ccccc4)cc4ccccc34)o2)CC1` [Compound 346, N-(4-{[6-(aminomethyl)-2-{5-[(1-methylpiperidin-4-yl)methyl]-1,3,4-oxa-diazol-2-yl}-1H-pyrrolo-[2,3-b]pyridin-1-yl]meth-yl}naphthalen-2-yl)-1-phenylmethanesulfon-amide], the Ki was 100 to 500 nM. Molecule `CN(C)Cc1nnc(-c2cc3ccc(CN)nc3n2Cc2cc(NS(=O)(=O)Cc3ccccc3)cc3ccccc23)o1` [Compound 347, N-(4-{[6-(aminomethyl)-2-{5-[(dimethylamino)-methyl]-1,3,4-oxadiazol-2-yl}-1H-pyrrolo[2,3-b]pyridin-1-yl]methyl}-naphthalen-2-yl)-1-phen-ylmethanesulfonamide] has a Ki of 100 to 500 nM. `NCc1ccc2cc(-c3nnc(N)o3)n(Cc3cc(NS(=O)(=O)Cc4ccccc4)cc4ccccc34)c2n1` [Compound 348, N-(4-{[2-(5-amino-1,3,4-oxadiazol-2-yl)-6-(amino-methyl)-1H-pyrrolo[2,3-b]pyridin-1-yl]methyl}-naphthalen-2-yl)-1-phen-ylmethanesulfonamide] showed a Ki of at most 100 nM. Molecule `CN(C)CC(=O)Nc1nnc(-c2cc3ccc(CN)nc3n2Cc2cc(NS(=O)(=O)Cc3ccccc3)cc3ccccc23)o1` [Compound 349] has a Ki of at most 100 nM.
